In EP2071024A1, “Peptides of human prostatic acid phosphatase enhancing viral infectivity” (Pharis Biotec GmbH, priority 2007, dated 2009):
Ends that are not written are not given here.

Test system: peripheral blood mononuclear cells (PBMC)
Test: MTT cytotoxicity assay
Format: cell-based
Details: stimulated PBMC, incubated for 3 days, high concentrations, listed as monomeric PAP85-120
Description: To determine possible cytotoxic effects of PAP85-120 fibrils, serial dilutions of fibrils were added to stimulated peripheral blood mononuclear cells (PBMC) and incubated for 3 days (see example 8). Thereafter 10 µl of a 5 mg/ml MTT (Sigma; # M2128) solution was added and cells were incubated for 4 h at 37°C. In living cells mitochondrial dehydrogenases […] the yellow MTT salt to blue formazan crystals (Schiff et al.; 1985). After dissolving the crystals in 1:1 Ethanol/DMSO, samples containing living cells appear blue whereas samples from dead cells are clear. Optical density (OD) was measured at 560/650 nm using a photometer (Molecular Devices).
Fig. 5: PAP85 is non cytotoxic. Peripheral blood mononuclear cells (PBMC) were stimulated with phytohemagglutinine (2 µg/ml) and Interleukin 2 (10 µg/ml) for three days. Thereafter cells were sown out in 96 well dishes containing the indicated concentrations of freshly dissolved monomeric PAP85 or fibrillar PAP85 and incubated for 3 days. Cytotoxicity was determined by detecting dehydrogenase activity in living cells using the MTT assay. Values represent average values +/- SD derived from triplicates.

## IRKRYRKFLNESYKHEQVYIRSTDVDRTLMSAMTNL [freshly dissolved PAP85-120]
  cell viability / cytotoxic effects: do not exert cytotoxic effects
